Laboratory results published in US9398761B2, “Transgenic animal model of mood disorders” (BRAINCO BIOPHARMA, S.L., priority 2012, dated 2016).
“Also recorded” adds a separate entry of the source.

System: wild-type (WT) and PTN transgenic (TG) mice
Assay: Novelty Suppressed Feeding Test after chronic fluoxetine treatment
Assay type: in vivo, mouse
Conditions: 4 weeks; for Latency to feed, treated versus untreated: fluoxetine in drinking water 160 mg/l, one-way ANOVA on rank-transformed data
Protocol: Novelty suppressed feeding test assesses anxiety and/or depression by measuring the latency of an animal to approach and eat food in a novel environment following chronic treatment with antidepressants. Mice (WT=14 and TG=14) were separated in two experimental groups: Without fluoxetine treatment and with fluoxetine treatment. The Fluoxetine was delivered ad libitum in the drinking water at a concentration of 160 mg/l (approximately doses of 20-25 mg/kg/day) during 4 weeks. Mice were weighed and food was removed from their cage. Twenty four hr after removal of food, mice were transferred to the testing room, placed in a clean holding cage and allowed to habituate for at least 30 min. The testing apparatus consisted of a clear Plexiglas open-field (50×50×25 cm) under an aversive condition (100 lux luminosity). The floor was covered with 2 cm of corncob bedding. A small piece of mouse chow was placed in the center of the arena. At the start of the experiment, each mouse was placed in the corner of the testing area, and the time to the first feeding event was recorded. After all mice from a single cage were tested, mice were returned to their home cage. A longer latency to feed reflects an anxiety-like behaviour. […] Measurement of Latency to feed were rank-transformed (Conover and Iman, 1981) and subjected to a Two-way ANOVA having two levels of genotype (wild-type or WT and transgenic or TG) and two levels of treatment (without fluoxetine or −Flx and with fluoxetine or +Flx).

For `CNCCC(Oc1ccc(C(F)(F)F)cc1)c1ccccc1` (stereo not shown) [Fluoxetine], the “Sensitivity to the effect of fluoxetine, Tg compared with Wt” value (Novelty Suppressed Feeding Test, chronic treatment) was “more sensitive”, the “Latency to feed, treated versus untreated” value (TG (PTN-overexpressing) mice) was “significant difference; also recorded: reversed” and the “Latency to feed, main effect of treatment (two-way ANOVA)” value (WT and TG mice, fluoxetine in drinking water 160 mg/l (approx. 20-25 mg/kg/day), with vs without fluoxetine) was “significant”. The “Latency to feed, treated versus untreated” value (WT mice) was “No significant differences”.
